Measured values reported in patent US20060093617A1, “Peptides for inducing a CTL and/or HTL response to hepatitis C virus” (Innogenetics, N.V., priority 2004, published 2006).
pIC50, pKi: −log10 of the molar value. Where a SMILES comes first, the peptide text is derived from it.

Biological target: HLA-A02 (Homo sapiens, UniProt P04439, D140Y/D185E/D98H/E176V/E277Q/G131W/G231S/I119V/I121R/I166T/I218V/L300P/L318F/N151K/N90K/P208A/P217A/Q86G/Q94H/R138H/R169H/T345S)
Assay: Competition binding assay using soluble HLA class I

Row | Structure (SMILES) | pKi | pIC50
1 | CC[C@H](C)[C@H](NC(=O)[C@H](Cc1ccc(O)cc1)NC(=O)[C@H](CC(C)C)NC(=O)[C@@H](N)CCCNC(=N)N)C(=O)NCC(=O)NCC(=O)N1CCC[C@H]1C(=O)N[C@@H](CC(C)C)C(=O)N[C@H](C(=O)O)[C@@H](C)O (H-RLYIGGPLT-OH) | 6.27 | 
2 | CSCC[C@H](NC(=O)CN)C(=O)N[C@@H](Cc1ccccc1)C(=O)N[C@@H](CC(=O)O)C(=O)N[C@@H](CO)C(=O)N[C@@H](CO)C(=O)N[C@H](C(=O)N[C@@H](CC(C)C)C(=O)N[C@@H](CS)C(=O)O)C(C)C (H-GMFDSSVLC-OH) | 7.15 | 6.94
3 | CC(C)C[C@H](NC(=O)[C@H](CCCNC(=N)N)NC(=O)[C@H](Cc1ccc(O)cc1)NC(=O)[C@@H]1CCCN1C(=O)[C@H](Cc1ccc(O)cc1)NC(=O)[C@H](CC(=O)O)NC(=O)[C@@H](NC(=O)[C@H](CC(C)C)NC(=O)[C@@H](N)CS)C(C)C)C(=O)O (H-CLVDYPYRL-OH; N-terminus and C-terminus assumed) | 6.36 | 6.36
4 | CC[C@H](C)[C@H](NC(=O)[C@H](CC(N)=O)NC(=O)CNC(=O)[C@H](CC(C)C)NC(=O)[C@@H](N)Cc1c[nH]c2ccccc12)C(=O)N[C@H](C(=O)N[C@@H](CCSC)C(=O)N[C@@H](Cc1ccc(O)cc1)C(=O)N[C@@H](C)C(=O)O)[C@@H](C)CC | 7.84 | 
5 | CC(C)C[C@H](NC(=O)[C@H](Cc1ccccc1)NC(=O)[C@@H](NC(=O)[C@H](CO)NC(=O)CNC(=O)[C@H](CS)NC(=O)[C@H](CC(C)C)NC(=O)[C@@H](N)CC(=O)O)C(C)C)C(=O)N[C@H](C(=O)O)C(C)C (H-DLCGSVFLV-OH; N-terminus and C-terminus assumed) | 6.10 | 
6 | CSCC[C@H](N)C(=O)N[C@@H](C)C(=O)N[C@@H](CC(C)C)C(=O)N[C@@H](Cc1ccc(O)cc1)C(=O)N[C@@H](CC(=O)O)C(=O)N[C@H](C(=O)N[C@H](C(=O)N[C@@H](CO)C(=O)N[C@H](C(=O)O)[C@@H](C)O)C(C)C)C(C)C (H-MALYDVVST-OH; N-terminus and C-terminus assumed) | 5.94 | 
7 | CC[C@H](C)[C@H](NC(=O)[C@H](Cc1c[nH]cn1)NC(=O)[C@@H](NC(=O)[C@H](CC(C)C)NC(=O)CNC(=O)[C@@H](NC(=O)[C@H](Cc1ccccc1)NC(=O)[C@@H](NC(=O)[C@@H](N)CO)C(C)C)[C@@H](C)O)[C@@H](C)CC)C(=O)O (H-SVFTGLIHI-OH) |  | 7.00
8 | CSCC[C@H](NC(=O)[C@@H](N)CO)C(=O)N[C@H](C(=O)NCC(=O)N[C@@H](CC(N)=O)C(=O)N[C@@H](Cc1c[nH]c2ccccc12)C(=O)N[C@@H](C)C(=O)N[C@@H](CCCCN)C(=O)N[C@H](C(=O)O)C(C)C)C(C)C (H-SMVGNWAKV-OH; N-terminus and C-terminus assumed) | 6.80 | 6.80

Biological target: T1, DRB1*0101 (Homo sapiens, UniProt P01903+P01911, A100R/D57E/F55L/F60I/F76Y/I96L/L162R/M171V/P40L/Q125E/R42F/V115G/Y59C)
T1 construct: endogenous in cells; host or cells: cell lysate
Assay: Competition binding assay using soluble HLA class II

Row | Structure (SMILES) | pIC50
9 | CC[C@H](C)[C@H](NC(=O)[C@H](CC(C)C)NC(=O)[C@H](CC(=O)O)NC(=O)[C@H](C)NC(=O)[C@@H](N)CC(=O)O)C(=O)N[C@@H](CCC(=O)O)C(=O)N[C@@H](C)C(=O)N[C@@H](CC(N)=O)C(=O)N[C@@H](CC(C)C)C(=O)N[C@@H](CC(C)C)C(=O)N[C@@H](Cc1c[nH]c2ccccc12)C(=O)N[C@@H](CCCNC(=N)N)C(=O)N[C@@H](CCC(N)=O)C(=O)N[C@@H](CCC(=O)O)C(=O)N[C@@H](CCSC)C(=O)O | 6.24
10 | CC(C)C[C@H](NC(=O)[C@H](CCCCN)NC(=O)[C@H](CCCNC(=N)N)NC(=O)[C@H](CC(C)C)NC(=O)[C@H](CS)NC(=O)[C@H](CO)NC(=O)[C@H](C)N)C(=O)NCC(=O)N[C@H](C(=O)N1CCC[C@H]1C(=O)N1CCC[C@H]1C(=O)N[C@@H](CC(C)C)C(=O)N[C@@H](CCCNC(=N)N)C(=O)N[C@H](C(=O)N[C@@H](Cc1c[nH]c2ccccc12)C(=O)O)C(C)C)C(C)C | 8.31
11 | CC(C)C[C@H](NC(=O)[C@H](CCC(N)=O)NC(=O)[C@H](CO)NC(=O)[C@H](C)N)C(=O)N[C@@H](CO)C(=O)N[C@@H](C)C(=O)N1CCC[C@H]1C(=O)N[C@@H](CO)C(=O)N[C@@H](CC(C)C)C(=O)N[C@@H](CCCCN)C(=O)N[C@@H](C)C(=O)N[C@H](C(=O)N[C@@H](CS)C(=O)N[C@H](C(=O)N[C@H](C(=O)O)[C@@H](C)O)[C@@H](C)O)[C@@H](C)O | 6.48

Biological target: T2, HLA-Cw06 (Homo sapiens, UniProt P10321, A176E/A330V/C350S/L171W/L180W/L218V/M285V/M309V/M331V/N104K/P208H/Q277E/Q291P/R121W/R243W/S101N/S123Y/S297R/T329A/T363A/V319A/V328M)
T2 construct: endogenous in cells
Assay: HLA class I competition cell-based binding assay

Row | Structure (SMILES) | pKi
12 | CC[C@H](C)[C@H](NC(=O)[C@H](CC(C)C)NC(=O)[C@H](Cc1c[nH]cn1)NC(=O)[C@H](CCCNC(=N)N)NC(=O)CNC(=O)CNC(=O)[C@H](CCCCN)NC(=O)[C@@H](NC(=O)[C@@H](N)C(C)C)[C@@H](C)CC)C(=O)N[C@@H](Cc1ccccc1)C(=O)O | 4.76
13 | CC(C)[C@H](NC(=O)CNC(=O)[C@H](CCCNC(=N)N)NC(=O)[C@@H](NC(=O)[C@H](CS)NC(=O)[C@@H](NC(=O)[C@H](C)NC(=O)[C@H](C)NC(=O)[C@H](CCCNC(=N)N)NC(=O)[C@@H](N)Cc1ccccc1)C(C)C)[C@@H](C)O)C(=O)O (H-FRAAVCTRGV-OH; N-terminus and C-terminus assumed) | 6.31
14 | CC[C@H](C)[C@H](NC(=O)[C@H](CCC(N)=O)NC(=O)CNC(=O)CNC(=O)CNC(=O)[C@@H]1CCCN1C(=O)[C@H](Cc1ccccc1)NC(=O)[C@H](CCCCN)NC(=O)[C@@H](N)C(C)C)C(=O)N[C@H](C(=O)O)C(C)C (H-VKFPGGGQIV-OH; N-terminus and C-terminus assumed) | 6.38
15 | CC(C)C[C@H](NC(=O)CNC(=O)[C@H](CCCNC(=N)N)NC(=O)[C@H](Cc1ccc(O)cc1)NC(=O)[C@H](Cc1ccc(O)cc1)NC(=O)[C@H](C)NC(=O)[C@@H](NC(=O)[C@H](C)NC(=O)[C@@H](N)CC(N)=O)C(C)C)C(=O)O | 4.97
16 | CC(C)C[C@H](NC(=O)[C@H](CCCNC(=N)N)NC(=O)[C@@H](N)Cc1ccc(O)cc1)C(=O)NCC(=O)N[C@@H](C)C(=O)N[C@H](C(=O)N[C@@H](CCC(N)=O)C(=O)N[C@@H](CC(N)=O)C(=O)N[C@@H](CCC(=O)O)C(=O)N[C@H](C(=O)O)C(C)C)C(C)C | 6.66
17 | CC[C@H](C)[C@H](NC(=O)CNC(=O)[C@H](CCCNC(=N)N)NC(=O)[C@H](CCCNC(=N)N)NC(=O)CN)C(=O)N[C@@H](Cc1ccc(O)cc1)C(=O)N[C@@H](CCCNC(=N)N)C(=O)N[C@@H](Cc1ccccc1)C(=O)N[C@H](C(=O)O)C(C)C | 6.24
18 | CC(C)[C@H](NC(=O)CNC(=O)[C@H](CO)NC(=O)[C@H](C)NC(=O)[C@H](CCCNC(=N)N)NC(=O)[C@H](CS)NC(=O)[C@H](CCCNC(=N)N)NC(=O)[C@H](CCCNC(=N)N)NC(=O)[C@@H](N)Cc1ccc(O)cc1)C(=O)O | 6.20
19 | CC(C)C[C@H](NC(=O)[C@H](C)NC(=O)[C@H](CCCNC(=N)N)NC(=O)[C@H](C)N)C(=O)N[C@@H](C)C(=O)N[C@@H](Cc1c[nH]cn1)C(=O)NCC(=O)N[C@H](C(=O)N[C@@H](CCCNC(=N)N)C(=O)N[C@H](C(=O)O)C(C)C)C(C)C (H-ARALAHGVRV-OH; N-terminus and C-terminus assumed) | 5.01
20 | CC[C@H](C)[C@H](N)C(=O)N[C@@H](CCCNC(=N)N)C(=O)N[C@@H](CO)C(=O)N[C@@H](CC(C)C)C(=O)N[C@H](C(=O)N[C@@H](CCC(=O)O)C(=O)N[C@@H](CCCNC(=N)N)C(=O)N[C@@H](CC(C)C)C(=O)N[C@@H](Cc1ccc(O)cc1)C(=O)N[C@H](C(=O)O)[C@@H](C)CC)[C@@H](C)O (H-IRSLTERLYI-OH; N-terminus and C-terminus assumed) | 5.21
21 | CC[C@H](C)[C@H](NC(=O)[C@H](CC(C)C)NC(=O)[C@H](CCCNC(=N)N)NC(=O)[C@H](C)NC(=O)[C@@H]1CCCN1C(=O)[C@H](CCCCN)NC(=O)[C@H](CCCNC(=N)N)NC(=O)CN)C(=O)N[C@H](C(=O)O)C(C)C (H-GRKPARLIV-OH; N-terminus and C-terminus assumed) | 5.69
22 | CC[C@H](C)[C@H](NC(=O)[C@H](CC(C)C)NC(=O)[C@H](CCCNC(=N)N)NC(=O)[C@H](C)NC(=O)[C@@H]1CCCN1C(=O)[C@H](CCCCN)NC(=O)[C@@H](N)CCCNC(=N)N)C(=O)N[C@H](C(=O)N[C@@H](Cc1ccccc1)C(=O)O)C(C)C (H-RKPARLIVF-OH; N-terminus and C-terminus assumed) | 5.08
23 | CC(C)C[C@H](NC(=O)[C@@H](NC(=O)[C@H](CCC(N)=O)NC(=O)[C@H](CC(C)C)NC(=O)[C@H](CCCNC(=N)N)NC(=O)[C@H](CC(=O)O)NC(=O)[C@H](Cc1ccccc1)NC(=O)[C@@H](NC(=O)[C@@H](N)C(C)C)[C@@H](C)O)C(C)C)C(=O)O | 5.95
24 | CC[C@H](C)[C@H](NC(=O)[C@@H](NC(=O)[C@@H](N)CCC(=O)O)C(C)C)C(=O)N[C@@H](CCCCN)C(=O)NCC(=O)NCC(=O)N[C@@H](CCCNC(=N)N)C(=O)N[C@@H](Cc1c[nH]cn1)C(=O)N[C@@H](CC(C)C)C(=O)O | 4.89
25 | CC(C)C[C@H](NC(=O)[C@@H](NC(=O)[C@H](CCCCN)NC(=O)[C@H](Cc1ccc(O)cc1)NC(=O)CNC(=O)[C@H](CCC(N)=O)NC(=O)[C@H](C)NC(=O)[C@H](C)N)C(C)C)C(=O)N[C@H](C(=O)O)C(C)C (H-AAQGYKVLV-OH; N-terminus and C-terminus assumed) | 5.20
26 | CC(C)[C@H](NC(=O)[C@H](CCCNC(=N)N)NC(=O)[C@H](CCC(N)=O)NC(=O)CNC(=O)[C@@H]1CCCN1C(=O)[C@H](CO)NC(=O)[C@H](Cc1ccc(O)cc1)NC(=O)[C@H](CCC(N)=O)NC(=O)[C@@H](N)Cc1ccccc1)C(=O)O (H-FQYSPGQRV-OH) | 6.41
27 | CC(C)C[C@H](NC(=O)[C@@H](NC(=O)[C@H](CCCCN)NC(=O)[C@H](Cc1ccc(O)cc1)NC(=O)CNC(=O)[C@H](CCC(N)=O)NC(=O)[C@H](C)NC(=O)[C@H](C)NC(=O)[C@@H](N)Cc1ccc(O)cc1)C(C)C)C(=O)N[C@H](C(=O)O)C(C)C (H-YAAQGYKVLV-OH; N-terminus and C-terminus assumed) | 5.04
